From publication PMC4065102 (PLoS ONE, 2014)
“Also recorded” adds a separate entry of the source. Bridges are numbered along the chain shown (N, C = ends). Where no end group is shown, it is not given here.

Assays:
[1] = Stability of peptides in the serum; format: in vitro ADME, mice; conditions: mouse serum, 100 µg peptide in 50 µl PBS + 50 µl filtered serum, 37°C, up to 24 h, C18 reverse phase FPLC, absorbance 215 nm, peak identity by MALDI-TOF MS
Procedure: Peptide stability in the serum was examined as previously described. Blood from mice was collected and allowed to clot, and then serum was obtained by centrifugation at 4°C twice followed by filtration (0.22 µm pore). Peptide (100 µg in 50 µl of PBS) was incubated with 50 µl of filtered serum at 37°C for the indicated time period. The incubated samples were diluted 100-fold and fractionated by C18 reverse phase FPLC with linear gradient of acetonitrile (Vydac protein and peptide C18, 0.1% trifluoroacetate in water for equilibration, and 0.1% trifluoroacetate in acetonitrile for elution). To confirm the identity of the peak from the profiles of C18 reverse phase FPLC, each peak was collected, vacuum dried, and analyzed by mass spectrometry (MS) using an MALDI-TOF mass spectrometer (Life Technologies, Carlsbad, CA).
Figure 5 Stability of linear and cyclic ApoPep-1 in the serum. Linear and cyclic ApoPep-1 peptides were incubated with mouse serum at 37°C for the indicated time periods. (A) (B) Linear and cyclic form of ApoPpep-1 samples and mouse serum were fractionated by C18 reverse-phase FPLC. Y axis represents the absorbance unit at 215 nm. Each peptide peak was indicated by an arrow and separable from serum peaks. (C) (D) MS spectrum of the linear and cyclic peptide peak collected from 24 h FPLC fraction and synthetic linear and cyclic ApoPep-1.

[2] = test system: SNU-16 stomach tumor xenografts; test: In vivo NIR fluorescence imaging of tumor apoptosis; design: species or system mice; conditions: for fluorescence intensity at tumor site in cisplatin plus cetuximab group compared to cisplatin alone and cetuximab alone / fluorescence intensity at tumor site in treated groups compared to untreated control group: FPR675-labeled peptide 800 nmol/kg i.v., imaging at 90 min; for fluorescence intensity at tumor site in cisplatin plus cetuximab group compared to cisplatin alone and cetuximab alone: after first and second round, linear: p<0.05/p<0.05 vs cisplatin, p<0.01/not significant vs cetuximab, cyclic: p<0.01/p<0.01 vs cisplatin, p<0.001/p<0.01 vs cetuximab; for fluorescence intensity at tumor site in treated groups compared to untreated control group: groups treated with cisplatin, cetuximab, cisplatin plus cetuximab, after first or second round of treatment, n = 3; for background fluorescence signals in other organs, including the liver and lung: whole body NIR fluorescence images, 90 min after i.v. FPR675-labeled peptide
Procedure: Eight-week old female athymic (nu/nu) Balb/c mice were purchased from Orient laboratories (Seongnam, Korea) and were housed under specific-pathogen-free conditions with laboratory chow and water ad libitum. Stomach tumor xenografts were established by subcutaneously injecting 1 x 10^7 SNU-16 cells in 100 µl saline into the right flank. Tumors were allowed to reach 50–60 mm^3 of volume before randomization and initiation of treatment. […] Changes in tumor size were measured over three weeks. Diameters of tumor were measured with automatic caliper. Tumor volumes were calculated using the formula: volume = (length x width x height)/2, where length, width, and height means the longest dimension, shorter dimension parallel to the mouse body, and diameter of tumor perpendicular to the length and width, respectively. Tumor weights were measured after isolation of tumor mass.
In vivo NIR fluorescence imaging was performed after the first and second round of treatment. Each treatment group (n = 6) was divided into two subgroups (n = 3) for imaging with linear and cyclic form of ApoPep-1, respectively. Linear and cyclic form of FPR675–labeled ApoPep-1 (1.45 mg/kg and 1.54 mg/kg, respectively; equivalent to 800 nmol/kg for each peptide) was injected through the tail vein into mice. At 90 min after administration, mice were anesthetized and subjected to imaging. NIR fluorescence (typically, between 650 and 1100 nm) is favored for in vivo optical imaging because of its low tissue absorption and deep tissue penetration properties. The excitation/emission wavelength of the FPR675 dye used in this study was 675/698 nm. Images were taken using the eXplore Optix optical imaging system (ART Inc., Montreal, Canada). […] The acquisition time for a whole-body scanning was 15 min per mouse. Fluorescence intensity at region of interest (ROI) was measured using a analysis software provided by the manufacturer (ART Inc.).
Figure 2 Monitoring of tumor response by in vivo imaging of apoptosis. […] After the first and second round of treatment, linear or cyclic form of FPR675 NIR fluorescence dye-labeled ApoPep-1 was intravenously injected into mice. In vivo NIR fluorescence images were taken at 90 min after administration. (A) (B) Quantification of NIR fluorescence signal intensity of the region of interest (ROI) in groups injected with linear and cyclic ApoPep-1. Bars represent the signal intensity at ROI obtained from three individual mice (mean ± S.D.). Asterisks represent statistical significance compared to PBS. Asterisks on brackets represent significance in difference between the two groups. * p<0.05, ** p<0.01, and *** p<0.001 by one-way ANOVA (n = 3 per group). (C) (D) Representative NIR fluorescence images by the uptake of linear and cyclic ApoPep-1 to tumor were shown. Scale bars represent normalized fluorescence intensity. Circles represent the ROI.

[3] = test system: SNU-16 stomach tumor xenografts; test: Anti-tumor treatment of mice and tumor size/weight measurement; format: in vivo; conditions: 3 weeks after treatment; cisplatin 5 mg/kg i.p. once per week x2, cetuximab 1.5 mg/kg i.p. twice per week x4; p<0.05, p<0.05, p<0.001 (linear ApoPep-1 group); p<0.05, p<0.01, p<0.001 (cyclic group)
Procedure: At 3 weeks after treatment (endpoint of experiments), tumor volumes were measured and tumors were isolated for the weight measurement.
SNU-16 stomach tumor-bearing mice that were analyzed for imaging signals after the first and second round of treatment were maintained for the measurement of tumor size. […] PBS, phosphate-buffered saline; CPT, cisplatin; CET, cetuximab; CPT+CET, cisplatin plus cetuximab.

[4] = test system: SNU16 human stomach cancer cell line; test: In vitro binding of peptides to apoptotic cells (flow cytometry); format: cell-based; conditions: 10 µM FITC-conjugated peptide 4°C 1 h, or Alexa488-annexin V 15 min RT
Procedure: SNU16 human stomach cancer cell line was purchased from KCLB (Seoul, Korea). […] After treatment, cells were incubated with 10 µM of fluorescein isothiocyanate (FITC)-conjugated linear or cyclic form of ApoPep-1 at 4°C for 1 h. As control, cells were stained with Alexa488-conjugated annexin V (Life technologies, Carlsbad, CA) for 15 min at RT. Percentages of fluorescent (peptide-bound or annexin V-bound) cells were measured by flow cytometry.
Figure 1 In vitro detection of apoptosis. […] Cells were harvested and incubated with FITC-labeled ApoPep-1 at 4°C for 1 h or with annexin V at room temperature for 15 min. Data represent percentages of apoptotic cells as measured by flow cytometry. (A-C) Percentages of apoptotic cells detected by linear form of ApoPep-1, cyclic form of ApoPep-1, and annexin V, respectively. PBS, phosphate-buffered saline; CPT, cisplatin; CET, cetuximab; CPT+CET, cisplatin plus cetuximab.

Molecule	fluorescence intensity at tumor site in cisplatin plus cetuximab group compared to cisplatin alone and cetuximab alone [2]	fluorescence intensity at tumor site in treated groups compared to untreated control group [2]	background fluorescence signals in other organs, including the liver and lung [2]	further results
CQRPPR [linear ApoPep-1, Linear (CQRPPR) form of ApoPep-1, histone H1-targeting peptide; used FITC-conjugated or FPR675-labeled]	higher	significantly higher	Little background fluorescence signals	amount of peptide remaining in the serum, as calculated by peak area ([1]; listed as linear form of ApoPep-1): not significantly changed up to 24 h; also recorded: stable in the presence of serum until 24 h
CQRPPRC (disulfide 1-7 (inferred)) [cyclic ApoPep-1, cyclic (CQRPPRC, disulfide bonding at amino and carboxy termini) form of ApoPep-1; used FITC-conjugated or FPR675-labeled]	remarkably higher	significantly higher	Little background fluorescence signals	amount of peptide remaining in the serum, as calculated by peak area ([1]; listed as cyclic form of ApoPep-1): not significantly changed up to 24 h; also recorded: stable in the presence of serum until 24 h
N.N.[Cl][Pt][Cl] [cisplatin]	–	–	–	tumor volumes compared to untreated control [3]: reduced tumor volumes
annexin V: Alexa488-conjugated annexin V, apoptosis probe that binds to phosphatidylserine (protein, UniProt P08758 2-320, looked up, Alexa488 conjugate) Annexin A5: AQVLRGTVTDFPGFDERADAETLRKAMKGLGTDEESILTLLTSRSNAQRQEISAAFKTLFGRDLLDDLKSELTGKFEKLIVALMKPSRLYDAYELKHALKGAGTNEKVLTEIIASRTPEELRAIKQVYEEEYGSSLEDDVVGDTSGYYQRMLVVLLQANRDPDAGIDEAQVEQDAQALFQAGELKWGTDEEKFITIFGTRSVSHLRKVFDKYMTISGFQIEETIDRETSGNLEQLLLAVVKSIRSIPAYLAETLYYAMKGAGTDDHTLIRVMVSRSEIDLFNIRKEFRKNFATSLYSMIKGDTSGDYKKALLLLCGEDD	–	–	–	percentages of apoptotic cells detected by the probe after treatment with cetuximab ([4]; cetuximab 200 µg/ml 24 h): ~40%; percentages of apoptotic cells detected by the probe after treatment with cisplatin ([4]; cisplatin 300 ng/ml 24 h): approximately 43%; percentages of apoptotic cells detected by the probe after treatment with cisplatin plus cetuximab ([4]; cisplatin 300 ng/ml plus cetuximab 200 µg/ml 24 h): ~45%
